# Data: patent publication US20220062240A1, “METHODS OF TREATING CANCER USING A CLK INHIBITOR” (BioSplice Therapeutics, Inc., priority 2018, published 2022)
# Like-named read-outs stand apart in the source and are kept apart here.
# How the values were obtained:
# [1] = tested on: colorectal cancer (6 cell lines); experiment: CellTiter-Glo Viability Assay, colorectal cancer; format: cell-based; settings: Homo sapiens, inhibition of cancer cell proliferation
# [2] = tested on: ovarian cancer (4 cell lines); experiment: CellTiter-Glo Viability Assay, ovarian cancer; format: cell-based; settings: Homo sapiens, inhibition of cancer cell proliferation
# [3] = tested on: prostate cancer (5 cell lines); experiment: CellTiter-Glo Viability Assay, prostate cancer; format: cell-based; settings: Homo sapiens
# DU4475 = experiment: CellTiter-Glo Viability Assay, breast cancer; format: cell-based; settings: Homo sapiens, DU-4475, 96 h; DU4475, breast cancer, four days; read-out: EC50
# ZR-75-1 = experiment: CellTiter-Glo Viability Assay, breast cancer; format: cell-based; settings: Homo sapiens, 96 h; ZR-75-1, breast cancer, four days; read-out: EC50
# BT-549 = experiment: CellTiter-Glo Viability Assay, breast cancer; format: cell-based; settings: Homo sapiens, 96 h; BT-549, breast cancer, four days; read-out: EC50
# HCC1599 = experiment: CellTiter-Glo Viability Assay, breast cancer; format: cell-based; settings: Homo sapiens, 96 h; HCC1599, breast cancer, four days; read-out: EC50
# T47D = experiment: CellTiter-Glo Viability Assay, breast cancer; format: cell-based; settings: Homo sapiens, 96 h, breast cancer, four days, read-out: EC50
# MCF7 = experiment: CellTiter-Glo Viability Assay, breast cancer; format: cell-based; settings: Homo sapiens, 96 h; MCF7, breast cancer, four days; read-out: EC50
# CAMA1 = experiment: CellTiter-Glo Viability Assay, breast cancer; format: cell-based; settings: Homo sapiens, CAMA-1, 96 h; CAMA1, breast cancer, four days; read-out: EC50
# MDA-MB-231-Luc = experiment: CellTiter-Glo Viability Assay, breast cancer; format: cell-based; settings: Homo sapiens, 96 h; MDA-MB-231-Luc, breast cancer, four days; read-out: EC50
# all 50 cell lines = experiment: CellTiter-Glo Viability Assay, average across all cell lines; format: cell-based; settings: Homo sapiens; across all 50 cell lines; read-out: average EC50 for inhibition of cancer cell proliferation
# Outline: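 Proliferation of a multi-tissue human cancer line panel is assessed over four days at 37° C and 5% CO2, seeding 300-3,000 cells/well. Viability is quantified by CellTiter-Glo luminescence, and EC50 values are calculated.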
# [4] = tested on: pancreatic cancer (8 cell lines); experiment: CellTiter-Glo Viability Assay, pancreatic cancer; format: cell-based; settings: Homo sapiens, inhibition of cancer cell proliferation
# CLK2 = molecular target: T1, CLK2 (Homo sapiens, UniProt P49760); experiment: CLK2 kinase activity assay (Z-lyte, Ser/Thr 6 peptide); format: biochemical; settings: recombinant CLK2 kinase, ATP 60 μM; read-out: EC50
# T1 construct: purchased Thermo Fisher (Life Technologies), Z'-LYTE Kinase Assay Kits
# T1 sequence (P49760 whole entry): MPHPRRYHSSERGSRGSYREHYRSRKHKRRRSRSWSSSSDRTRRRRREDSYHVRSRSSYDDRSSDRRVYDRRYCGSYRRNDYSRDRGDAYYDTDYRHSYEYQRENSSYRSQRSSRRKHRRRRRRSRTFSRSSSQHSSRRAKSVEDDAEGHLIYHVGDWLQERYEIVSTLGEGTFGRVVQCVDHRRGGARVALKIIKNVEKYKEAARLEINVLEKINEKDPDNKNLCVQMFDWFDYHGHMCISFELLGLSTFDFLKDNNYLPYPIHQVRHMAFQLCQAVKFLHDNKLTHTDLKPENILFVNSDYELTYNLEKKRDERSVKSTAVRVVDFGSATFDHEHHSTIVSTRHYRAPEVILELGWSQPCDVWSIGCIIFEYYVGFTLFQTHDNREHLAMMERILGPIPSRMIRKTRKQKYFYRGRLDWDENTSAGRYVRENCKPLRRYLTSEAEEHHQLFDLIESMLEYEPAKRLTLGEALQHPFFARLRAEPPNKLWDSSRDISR
# Experimental: All reactions were performed in duplicate.
# CLK3 = CLK3 (Homo sapiens, UniProt P49761); experiment: CLK3 kinase activity assay (Z-lyte, Ser/Thr 18 peptide)
# Sequence of CLK3 (P49761 whole entry): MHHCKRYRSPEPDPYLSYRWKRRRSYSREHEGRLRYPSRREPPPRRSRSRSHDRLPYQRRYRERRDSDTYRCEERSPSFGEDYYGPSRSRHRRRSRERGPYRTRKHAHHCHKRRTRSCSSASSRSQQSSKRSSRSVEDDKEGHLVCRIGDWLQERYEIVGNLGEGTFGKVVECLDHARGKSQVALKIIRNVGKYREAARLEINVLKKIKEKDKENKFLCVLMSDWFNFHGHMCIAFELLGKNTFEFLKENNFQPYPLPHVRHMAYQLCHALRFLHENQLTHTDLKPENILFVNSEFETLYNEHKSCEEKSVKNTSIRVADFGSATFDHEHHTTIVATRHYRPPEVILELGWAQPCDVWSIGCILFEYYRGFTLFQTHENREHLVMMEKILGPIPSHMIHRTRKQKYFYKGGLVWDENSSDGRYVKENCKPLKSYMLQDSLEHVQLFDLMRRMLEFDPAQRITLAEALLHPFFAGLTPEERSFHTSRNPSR
# Experimental: Each compound was dissolved in DMSO as a 10 mM stock and used to prepare compound source plates.
# This is a non-radioactive assay using fluorescence resonance energy transfer (FRET) between coumarin and fluorescein to detect kinase activity which is represented as a ratio of coumarin emission/fluorescein emission.
# All reactions were performed in duplicate. Unphosphorylated (“0% Control”) and phosphorylated (“100% control”) forms of Ser/Thr 18 served as control reactions. Additionally, an 11-point dose-response curve of Staurosporine (1 uM top) was run to serve as a positive compound control.
# After incubation, Development Reagent A was diluted in Development Buffer then added to the reaction and allowed to further incubate for one hour at room temperature.
# Dose-response curves were generated and inhibitory concentration (IC50) values were calculated using non-linear regression curve fit in the Dotmatics' Studies Software (Bishops Stortford, UK).
# Compounds were acoustically transferred on 1536-well plates (Echo 550, LabCyte) instrument. Kinase, peptide, and ATP reagents from the Z′-LYTE Kinase Assay Kits (Thermo Fisher) were dispensed onto the compound plates using an EL406 liquid dispenser (BioTek). Plates were incubated in the dark at room temperature for 1 hr. Development reagent was added to the plates and then incubated in the dark at room temperature for 1 hr. Fluorescence signal form the plate was then read using an EnVision Multilabel Plate Reader (Perkin Elmer).
# [5] = tested on: haematopoietic & lymphoid tumors (13 cell lines); experiment: CellTiter-Glo Viability Assay, haematopoietic & lymphoid tumors; format: cell-based; settings: Homo sapiens, inhibition of cancer cell proliferation
# [6] = tested on: lung cancer (4 cell lines); experiment: CellTiter-Glo Viability Assay, lung cancer; format: cell-based; settings: Homo sapiens, inhibition of cancer cell proliferation
# [7] = tested on: liver cancer (3 cell lines); experiment: CellTiter-Glo Viability Assay, liver cancer; format: cell-based; settings: Homo sapiens, inhibition of cancer cell proliferation
smiles,measurement,setting,value
CN1CC=C(c2cc(C(=O)Nc3cc4cc(-c5cncc(NC(C)(C)C)n5)cnc4cn3)ccn2)CC1 [Compound 86],EC50,"[1]; HCT-116, HCT116 cell line, read-out: Colorectal cancer, EC50 (μM) HCT116",0.718 µM
same,EC50,"[1]; HT-29, HT29 cell line, read-out: Colorectal cancer, EC50 (μM) HT29",1.17 µM
same,EC50,"[1]; SW-620, SW620 cell line, read-out: Colorectal cancer, EC50 (μM) SW620",0.49 µM
same,EC50,"[1]; DLD-1 cell line, read-out: Colorectal cancer, EC50 (μM) DLD-1",0.848 µM
same,EC50,"[1]; SW48 cell line, read-out: Colorectal cancer, EC50 (μM) SW48",0.454 µM
same,EC50,"[1]; SW480 cell line, read-out: Colorectal cancer, EC50 (μM) SW480",1.46 µM
same,EC50,"[2]; PA-1, PA1 cell line, read-out: Ovarian cancer, EC50 (μM) PA1",1.25 µM
same,EC50,"[2]; TOV112D, TOV-112D cell line, read-out: Ovarian cancer, EC50 (μM) TOV-112D",1.23 µM
same,EC50,"[2]; OV-90 cell line, read-out: Ovarian cancer, EC50 (μM) OV-90",6.93 µM
same,EC50,"[2]; OVCAR-3 cell line, read-out: Ovarian cancer, EC50 (μM) OVCAR-3",1.2 µM
same,EC50,"[3]; DU-145, read-out: Prostate cancer EC50 Du-145",2690 nM
same,EC50,"[3]; PC-3, PC3 cell line, inhibition of cancer cell proliferation, read-out: Prostate cancer EC50 PC3",3350 nM
same,EC50,"[3]; 22Rv1 cell line, inhibition of cancer cell proliferation, read-out: Prostate cancer EC50 22Rv1",1210 nM
same,EC50,"[3]; LNCap clone FGC cell line, inhibition of cancer cell proliferation, read-out: Prostate cancer EC50 LNCap clone FGC",5330 nM
same,EC50,"[3]; VCaP (Sigma) cell line, inhibition of cancer cell proliferation, read-out: Prostate cancer EC50 VCaP (Sigma)",2250 nM
same,EC50,DU4475,2500 nM
same,EC50,ZR-75-1,4180 nM
same,EC50,BT-549,2890 nM
same,EC50,HCC1599,> 10000 nM
same,EC50,T47D,> 10000 nM
same,EC50,MCF7,> 10000 nM
same,EC50,CAMA1,2130 nM
same,EC50,MDA-MB-231-Luc,3790 nM
same,EC50,all 50 cell lines,2710 nM
same,EC50,"[4]; BXPC-3, BxPC3 cell line, read-out: Pancreatic cancer, EC50 BxPC3",1710 nM
same,EC50,"[4]; CAPAN-1, Capan1 cell line, read-out: Pancreatic cancer, EC50 Capan1",1890 nM
same,EC50,"[4]; Capan-2, Capan2 cell line, read-out: Pancreatic cancer, EC50 Capan2",2630 nM
same,EC50,"[4]; MIA PaCa-2 cell line, read-out: Pancreatic cancer, EC50 MIA PaCa-2",1010 nM
same,EC50,"[4]; PANC 05.04 cell line, read-out: Pancreatic cancer, EC50 PANC 05.04",2890 nM
same,EC50,"[4]; PANC-1 cell line, read-out: Pancreatic cancer, EC50 PANC-1",5420 nM
same,EC50,"[4]; UPAFII cell line, read-out: Pancreatic cancer, EC50 UPAFII",983 nM
same,EC50,CLK2,4.7 nM
same,EC50,CLK3,11.5 nM
same,EC50,"[5]; DND41, DND-41 cell line, read-out: Haematopoietic & Lymphoid tumors, EC50 (μM) DND-41",1.37 µM
same,EC50,"[5]; MV4-11, MV-4-11 cell line, read-out: Haematopoietic & Lymphoid tumors, EC50 (μM) MV-4-11",0.292 µM
same,EC50,"[5]; Rec1, REC-1 cell line, read-out: Haematopoietic & Lymphoid tumors, EC50 (μM) REC-1",0.663 µM
same,EC50,"[5]; SU-DHL-4, SUDHL4 cell line, read-out: Haematopoietic & Lymphoid tumors, EC50 (μM) SUDHL4",1.11 µM
same,EC50,"[5]; HL-60 cell line, read-out: Haematopoietic & Lymphoid tumors, EC50 (μM) HL-60",2.85 µM
same,EC50,"[5]; JM1 cell line, read-out: Haematopoietic & Lymphoid tumors, EC50 (μM) JM1",0.645 µM
same,EC50,"[5]; JURKAT, Clone E6-1 cell line, read-out: Haematopoietic & Lymphoid tumors, EC50 (μM) JURKAT, Clone E6-1",2.14 µM
same,EC50,"[5]; JeKo-1 cell line, read-out: Haematopoietic & Lymphoid tumors, EC50 (μM) JeKo-1",0.884 µM
same,EC50,"[5]; KASUMI-1 cell line, read-out: Haematopoietic & Lymphoid tumors, EC50 (μM) KASUMI-1",1.22 µM
same,EC50,"[5]; Loucy cell line, read-out: Haematopoietic & Lymphoid tumors, EC50 (μM) Loucy",1.07 µM
same,EC50,"[5]; MOLT-4 cell line, read-out: Haematopoietic & Lymphoid tumors, EC50 (μM) MOLT-4",1.46 µM
same,EC50,"[5]; TF-1 cell line, read-out: Haematopoietic & Lymphoid tumors, EC50 (μM) TF-1",2.11 µM
same,EC50,"[5]; TOLEDO cell line, read-out: Haematopoietic & Lymphoid tumors, EC50 (μM) TOLEDO",0.811 µM
same,EC50,"[6]; A-427, A427 cell line, read-out: Lung cancer, EC50 (μM) A427",1.5 µM
same,EC50,"[6]; HCC78, HCC-78 cell line, read-out: Lung cancer, EC50 (μM) HCC-78",6.86 µM
same,EC50,"[6]; NCI-H460 cell line, read-out: Lung cancer, EC50 (μM) NCI-H460",2.72 µM
same,EC50,"[6]; NCI-H522 cell line, read-out: Lung cancer, EC50 (μM) NCI-H522",0.895 µM
same,EC50,"[7]; SNU-398, SNU398 cell line, read-out: Liver cancer, EC50 SNU398",459 nM
same,EC50,"[7]; HEPG2 cell line, read-out: Liver cancer, EC50 HEPG2",3860 nM
same,EC50,"[7]; PLC/PRF/5 cell line, read-out: Liver cancer, EC50 PLC/PRF/5",> 10000 nM
